{"source": "patent US20040009599A1", "about": "“Antisense modulation of cellular inhibitor of apoptosis-1 expression” (priority 1998, published 2004)", "note": "Strand notation (5' to 3'): a small letter for the sugar, then the base; units joined by * are phosphorothioate-linked, units joined directly phosphodiester-linked; [ ] holds rarer units or linkages, { } end groups; capitals alone tell only the bases. d = 2'-deoxy (DNA)"}
{"tested_on": "human Cellular Inhibitor of Apoptosis-1 RNA", "assay": "Inhibition of Cellular Inhibitor of Apoptosis-1 mRNA levels by quantitative real-time PCR after oligonucleotide treatment of cells", "assay_type": "cell-based", "details": "phosphorothioate oligodeoxynucleotides; oligonucleotide at final concentration of 150 nM with LIPOFECTIN; real-time PCR; averages from three experiments", "protocol": "(§1) Cells were harvested 16 hours after oligonucleotide treatment.\n(§2) Poly(A)+ mRNA was isolated according to Miura et al., Clin. Chem., 1996, 42, 1758-1764. Other methods for poly(A)+ mRNA isolation are taught in, for example, Ausubel, F. M. et al., Current Protocols in Molecular Biology, Volume 1, pp. 4.5.1-4.5.3, John Wiley & Sons, Inc., 1993. […] 60 μL lysis buffer (10 mM Tris-HCl, pH 7.6, 1 mM EDTA, 0.5 M NaCl, 0.5% NP-40, 20 mM vanadyl-ribonucleoside complex) was added to each well, the plate was gently agitated and then incubated at room temperature for five minutes. 55 μL of lysate was transferred to Oligo d(T) coated 96-well plates (AGCT Inc., Irvine Calif.). Plates were incubated for 60 minutes at room temperature, washed 3 times with 200 μL of wash buffer (10 mM Tris-HCl pH 7.6, 1 mM EDTA, 0.3 M NaCl). After the final wash, the plate was blotted on paper towels to remove excess wash buffer and then air-dried for 5 minutes. 60 μL of elution buffer (5 mM Tris-HCl pH 7.6), preheated to 70° C. was added to each well, the plate was incubated on a 90° C. hot plate for 5 minutes, and the eluate was then transferred to a fresh 96-well plate.\n(§3) Cellular Inhibitor of Apoptosis-1 probes and primers were designed to hybridize to the human Cellular Inhibitor of Apoptosis-1 sequence, using published sequence information (GenBank accession number U37547, incorporated herein as SEQ ID NO:1).\n(§4) For Cellular Inhibitor of Apoptosis-1 the PCR primers were: […]\n(§5) Target sites are indicated by nucleotide numbers, as given in the sequence source reference (Genbank accession no. U37547), to which the oligonucleotide binds. All compounds in Table 1 are oligodeoxynucleotides with phosphorothioate backbones (internucleoside linkages) throughout. […] Data are averages from three experiments. If present, “N.D.” indicates “no data”.", "units": {"% Inhibition of Cellular Inhibitor of Apoptosis-1 mRNA levels": "%"}}
{"substance": "ISIS 23357: phosphorothioate oligodeoxynucleotide tggtaggtaagaaatctg, Coding target site 1717 (antisense dT*dG*dG*dT*dA*dG*dG*dT*dA*dA*dG*dA*dA*dA*dT*dC*dT*dG)", "% Inhibition of Cellular Inhibitor of Apoptosis-1 mRNA levels": 0}
{"substance": "ISIS 23358: phosphorothioate oligodeoxynucleotide ttcccagttactgagctt, Coding target site 1835 (antisense dT*dT*dC*dC*dC*dA*dG*dT*dT*dA*dC*dT*dG*dA*dG*dC*dT*dT)", "% Inhibition of Cellular Inhibitor of Apoptosis-1 mRNA levels": 78}
{"substance": "ISIS 23359: phosphorothioate oligodeoxynucleotide ctcagatttgaaatgcta, Coding target site 1936 (antisense dC*dT*dC*dA*dG*dA*dT*dT*dT*dG*dA*dA*dA*dT*dG*dC*dT*dA)", "% Inhibition of Cellular Inhibitor of Apoptosis-1 mRNA levels": 0}
{"substance": "ISIS 23360: phosphorothioate oligodeoxynucleotide ttcccaacacctcaagcc, Coding target site 2093 (antisense dT*dT*dC*dC*dC*dA*dA*dC*dA*dC*dC*dT*dC*dA*dA*dG*dC*dC)", "% Inhibition of Cellular Inhibitor of Apoptosis-1 mRNA levels": 55}
{"substance": "ISIS 23361: phosphorothioate oligodeoxynucleotide taccttgaatctcatcaa, Coding target site 2193 (antisense dT*dA*dC*dC*dT*dT*dG*dA*dA*dT*dC*dT*dC*dA*dT*dC*dA*dA)", "% Inhibition of Cellular Inhibitor of Apoptosis-1 mRNA levels": 0}
{"substance": "ISIS 23362: phosphorothioate oligodeoxynucleotide ataattggtgggtcagca, Coding target site 2269 (antisense dA*dT*dA*dA*dT*dT*dG*dG*dT*dG*dG*dG*dT*dC*dA*dG*dC*dA)", "% Inhibition of Cellular Inhibitor of Apoptosis-1 mRNA levels": 0}
{"substance": "ISIS 23363: phosphorothioate oligodeoxynucleotide ttttactttgaactgttt, Coding target site 2391 (antisense dT*dT*dT*dT*dA*dC*dT*dT*dT*dG*dA*dA*dC*dT*dG*dT*dT*dT)", "% Inhibition of Cellular Inhibitor of Apoptosis-1 mRNA levels": 0}
{"substance": "ISIS 23364: phosphorothioate oligodeoxynucleotide catttcttcagcttgttt, Coding target site 2501 (antisense dC*dA*dT*dT*dT*dC*dT*dT*dC*dA*dG*dC*dT*dT*dG*dT*dT*dT)", "% Inhibition of Cellular Inhibitor of Apoptosis-1 mRNA levels": 0}
{"substance": "ISIS 23365: phosphorothioate oligodeoxynucleotide tcgcttgtaaaggtatct, Coding target site 2661 (antisense dT*dC*dG*dC*dT*dT*dG*dT*dA*dA*dA*dG*dG*dT*dA*dT*dC*dT)", "% Inhibition of Cellular Inhibitor of Apoptosis-1 mRNA levels": 0}
{"substance": "ISIS 23366: phosphorothioate oligodeoxynucleotide attcttatccacaaataa, Coding target site 2774 (antisense dA*dT*dT*dC*dT*dT*dA*dT*dC*dC*dA*dC*dA*dA*dA*dT*dA*dA)", "% Inhibition of Cellular Inhibitor of Apoptosis-1 mRNA levels": 0}
{"substance": "ISIS 23367: phosphorothioate oligodeoxynucleotide gaccacaaggaataaata, Coding target site 2904 (antisense dG*dA*dC*dC*dA*dC*dA*dA*dG*dG*dA*dA*dT*dA*dA*dA*dT*dA)", "% Inhibition of Cellular Inhibitor of Apoptosis-1 mRNA levels": 0}
{"substance": "ISIS 23368: phosphorothioate oligodeoxynucleotide ttagatggcttcaagtgt, 3′ UTR target site 3071 (antisense dT*dT*dA*dG*dA*dT*dG*dG*dC*dT*dT*dC*dA*dA*dG*dT*dG*dT)", "% Inhibition of Cellular Inhibitor of Apoptosis-1 mRNA levels": 10}
{"substance": "ISIS 23369: phosphorothioate oligodeoxynucleotide atatagttcaccaaacat, 3′ UTR target site 3222 (antisense dA*dT*dA*dT*dA*dG*dT*dT*dC*dA*dC*dC*dA*dA*dA*dC*dA*dT)", "% Inhibition of Cellular Inhibitor of Apoptosis-1 mRNA levels": 0}
{"substance": "ISIS 23370: phosphorothioate oligodeoxynucleotide ttcctggtttccagttct, 3′ UTR target site 3355 (antisense dT*dT*dC*dC*dT*dG*dG*dT*dT*dT*dC*dC*dA*dG*dT*dT*dC*dT)", "% Inhibition of Cellular Inhibitor of Apoptosis-1 mRNA levels": 46}
{"substance": "ISIS 23371: phosphorothioate oligodeoxynucleotide agtgaaaagcaccaaaga, 3′ UTR target site 3407 (antisense dA*dG*dT*dG*dA*dA*dA*dA*dG*dC*dA*dC*dC*dA*dA*dA*dG*dA)", "% Inhibition of Cellular Inhibitor of Apoptosis-1 mRNA levels": 0}
{"tested_on": "human Cellular Inhibitor of Apoptosis-1 RNA", "assay": "Inhibition of Cellular Inhibitor of Apoptosis-1 mRNA levels by quantitative real-time PCR after oligonucleotide treatment of cells", "assay_type": "cell-based", "details": "summary of Table 1; real-time PCR of mRNA levels", "protocol": "as §1, §2, §3, §4, §5"}
{"substance": "ISIS 23358: phosphorothioate oligodeoxynucleotide ttcccagttactgagctt, Coding target site 1835 (antisense dT*dT*dC*dC*dC*dA*dG*dT*dT*dA*dC*dT*dG*dA*dG*dC*dT*dT)", "inhibition of Cellular Inhibitor of Apoptosis-1 expression": "at least 20%"}
{"substance": "ISIS 23360: phosphorothioate oligodeoxynucleotide ttcccaacacctcaagcc, Coding target site 2093 (antisense dT*dT*dC*dC*dC*dA*dA*dC*dA*dC*dC*dT*dC*dA*dA*dG*dC*dC)", "inhibition of Cellular Inhibitor of Apoptosis-1 expression": "at least 20%"}
{"substance": "ISIS 23370: phosphorothioate oligodeoxynucleotide ttcctggtttccagttct, 3′ UTR target site 3355 (antisense dT*dT*dC*dC*dT*dG*dG*dT*dT*dT*dC*dC*dA*dG*dT*dT*dC*dT)", "inhibition of Cellular Inhibitor of Apoptosis-1 expression": "at least 20%"}
